14 compounds from PubChem BioAssay (NCI) can be followed below.

Assay in all cases: NCI-60 cell line screen, 48 h
Assay [1] relates to IGROV1 ovarian.
In assay [2] the test system is SNB-78 CNS.
Assay [3] concerns HOP-18 NSCLC.
For assay [4], the system named is A549 NSCLC.
Assay [5] concerns ACHN renal.
The test system of assay [6] is HCT-116 colon.
For assay [7], the system named is HOP-92 NSCLC.
Assay [8] has as its system DMS 114 small cell lung.
In assay [9] the test system is NCI-H226 lung.
Assay [10] has as its system COLO 205 colon.

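How tested: cells in 96-well plates exposed to compound for 48 hours at five concentrations. GI50 = concentration required for 50% inhibition of growth. TGI is the concentration that stops growth completely.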 Bounds are passed on as bounds.

`O=C(O)CCC(NC(=O)c1ccc(Nc2nc3ccccc3nc2-c2cccs2)cc1)C(=O)O` (configuration not stated): the TGI in [1], in [2], in assay [3], in assay [4], in assay [5] and in assay [6] was over 100 µM each time. Further, the TGI in assay [7], in assay [8] and in [9] was over 100 µM in each case.
For the compound `COC(=O)c1ccccc1NC(=O)C(=O)Cc1nc2c3c(ccc2[nH]c1=O)C(=O)c1ccccc1C3=O`, the TGI in assay [1] was 99.1 µM; in assay [2] it was over 100 µM; in [3] it was over 100 µM; in [4], 62.1 µM; in [5], over 100 µM; in assay [6], 34.7 µM. In addition, the TGI in assay [7] was 92.9 µM; in [8] it was over 100 µM; in [10], over 100 µM; in assay [9] it was 16.7 µM.
Take `OCC1=CC(NC2CC(CO)C(O)C(O)C2O)C(O)C(O)C1O` (configuration not stated): the TGI in [1], in assay [3], in assay [4], in assay [5], in assay [6] and in assay [8] was over 100 µM throughout. Besides, the TGI in assay [10] and in assay [9] was over 100 µM each time.
Turning to `CCN(CC)CCSc1c2ccccc2nc2cc(NCC(=O)Nc3ccccc3-c3ccccc3NC(=O)CNc3ccc4c(SCCN(CC)CC)c5ccccc5nc4c3)ccc12`, the TGI in assay [1], in assay [3], in [4], in assay [5], in assay [6] and in [7] was over 100 µM in each case. For the same compound, the results for the TGI in assay [10] and in assay [9] were over 55.3 µM and over 100 µM, respectively.
Take `CCOC(=O)CCC1(C(=O)OCC)CCCCC1=O` (configuration not stated): the TGI in assay [1], in assay [2], in assay [3], in [4], in assay [5] and in [6] was over 100 µM each time. Further, the TGI in [7], in assay [8] and in assay [10] was over 100 µM each time.
Consider `Cc1ccc(S(=O)(=O)OC[C@@H]2CO2)cc1`, for which the TGI in assay [1], in [2], in [3], in [4], in [5] and in assay [6] was over 100 µM throughout. Further, the TGI in assay [7], in [10] and in assay [9] was over 100 µM each time.
With `CC(=O)[CH-]C(=O)c1ccccc1.CC(=O)[CH-]C(=O)c1ccccc1.CN(C)c1ccc([O-])cc1.CN(C)c1ccc([O-])cc1.Cl.[Ti+4]`, the GI50 in assay [1] was 46.8 µM; in assay [3], 23.1 µM; in assay [4], 29 µM; in assay [5], 16.9 µM; in [6], 18.1 µM; in [7], 14.9 µM. Besides, the GI50 in [10] was 14.9 µM; in assay [9], 18.2 µM. Also, the TGI in assay [1] was over 100 µM; in [3], over 31.6 µM; in assay [4] it was over 31.6 µM; in assay [5], over 31.6 µM; in assay [6] it was over 31.6 µM; in [7], 27.5 µM. The TGI in assay [10] was 22.5 µM; in [9], 30.9 µM.
With `Nc1ccccc1S(=O)(=O)N(CC(=O)O)c1ccccc1`, the TGI in assay [1], in assay [3], in assay [4], in [5], in assay [7] and in assay [10] was over 100 µM each time.
With `CCC[CH2][Sn]([CH2]CCC)([S]c1cccc2cccnc12)[S]c1cccc2cccnc12`, the GI50 was 0.224 µM in assay [1]; 0.203 µM in assay [2]; 0.264 µM in [3]; 0.348 µM in assay [4]; 0.193 µM in assay [5]; 0.155 µM in assay [6]. Besides, the results for the GI50 in [8] and in assay [10] were 0.129 µM and 0.0592 µM, respectively. The TGI was found to be 0.53 µM in [1]; 0.825 µM in assay [2]; 0.605 µM in assay [3]; 1.34 µM in assay [4]; 0.396 µM in [5]; 0.303 µM in assay [6]. In addition, the TGI in [8] came to 0.319 µM; in assay [10] it was 0.224 µM.
Turning to `C1=C2/CC[C@H](Sc3ccccc3)C2C2(CCCCC/1)OCCO2` (some centres not stated), the TGI in [1] is over 100 µM; in [2], over 100 µM; in [3] it was over 100 µM; in [5] it was 85.9 µM; in [6], 37.1 µM; in assay [7] it was 29.6 µM. Also, the TGI in [10] was 37.8 µM; in assay [9] it was 60.4 µM.
`O=C(O)CCNCCCNCCC(=O)O`: the TGI in assay [1], in assay [3], in assay [4], in assay [5], in assay [6] and in [7] was over 100 µM in each case. In addition, the TGI in [8], in [10] and in assay [9] was over 100 µM in each case.
For `Cc1c(C(=O)C/C(=N/NC(=O)c2ccccc2O)C(=O)Nc2ccccc2C(C)C)[n+](=O)c2ccccc2n1[O-]`, the TGI in assay [1], in [2], in assay [3], in assay [4], in [5] and in assay [6] was over 100 µM each time. Also, the TGI in assay [8] is 60.8 µM; in assay [10], over 100 µM; in assay [9], over 100 µM.
As for `O=C1/C(=C/c2ccc(O)c(O)c2)CCC/C1=C\c1ccc(O)c(O)c1`, the TGI in assay [1] was 15.9 µM; in assay [2] it was 8.19 µM; in [3], 10.4 µM; in assay [4] it was over 50.2 µM; in [5], 11 µM; in [6], 7.17 µM. The TGI is 13.2 µM in assay [7], over 64 µM in assay [10] and 9.43 µM in [9].
`CNC(=S)OCCC(C)CCCC(C)C` (configuration not stated): the TGI in assay [1] worked out at 31.7 µM; in assay [2] it was 34.5 µM; in assay [3], 31.3 µM; in assay [4], 32.5 µM; in [5], 32.8 µM; in assay [6] it was 30.7 µM.
